From PubChem BioAssay (NCI)
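These data come from cells grown in 96-well plates and exposed to compound for 48 hours at five concentrations. TGI is the concentration that stops growth completely.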

Assays:
Assay in all cases: DTP human tumour cell line panel, 48 h
A498 renal = system: A498 renal
ACHN renal = system: ACHN renal
COLO 205 colon = system: COLO 205 colon
HL-60(TB) leukemia = system: HL-60(TB) leukemia
HOP-62 NSCLC = system: HOP-62 NSCLC
LOX IMVI melanoma = system: LOX IMVI melanoma
M14 melanoma = system: M14 melanoma
MOLT-4 leukemia = system: MOLT-4 leukemia
NCI-H226 lung = system: NCI-H226 lung
NCI-H23 lung = system: NCI-H23 lung
OVCAR-8 ovarian = system: OVCAR-8 ovarian
SNB-75 CNS = system: SNB-75 CNS
U251 CNS = system: U251 CNS
UACC-62 melanoma = system: UACC-62 melanoma
RPMI-8226 leukemia = system: RPMI-8226 leukemia
MDA-MB-435 = system: MDA-MB-435
MDA-N = system: MDA-N

Row | Structure (SMILES) | TGI (A498 renal) | TGI (ACHN renal) | TGI (COLO 205 colon) | TGI (HL-60(TB) leukemia) | TGI (HOP-62 NSCLC) | TGI (LOX IMVI melanoma) | TGI (M14 melanoma) | TGI (MOLT-4 leukemia) | TGI (NCI-H226 lung) | TGI (NCI-H23 lung) | TGI (OVCAR-8 ovarian) | TGI (SNB-75 CNS) | TGI (U251 CNS) | TGI (UACC-62 melanoma) | TGI (RPMI-8226 leukemia) | TGI (MDA-MB-435) | TGI (MDA-N)
1 | C[N+]1=C(c2cccnc2/C=N/O)OCC1(C)C | > 100 µM | > 100 µM | > 100 µM | > 100 µM | > 100 µM | > 100 µM | > 100 µM | > 100 µM | > 100 µM | > 100 µM | > 100 µM | > 100 µM | > 100 µM | > 100 µM |  |  | 
2 | O=C(Nc1cccc(C(F)(F)F)c1)C(=O)C(C(=O)c1ccc(Cl)c(Cl)c1)C1OC(=O)c2ccccc21 (stereo unspecified) | 79.8 µM | > 100 µM | > 100 µM | > 100 µM | > 100 µM | > 100 µM | > 100 µM | > 100 µM | 62.5 µM | > 100 µM | > 100 µM | 92.3 µM | > 100 µM | 88.3 µM | > 100 µM |  | 
3 | CCCCn1c(-c2ccccc2)cs/c1=N\N=C1C=C(C(C)(C)C)C(=O)C(C(C)(C)C)=C1 | > 100 µM | > 100 µM | > 100 µM | > 100 µM | > 100 µM | > 100 µM | > 100 µM | > 100 µM | > 100 µM | > 100 µM | > 100 µM |  | > 100 µM | > 100 µM |  |  | 
4 | O=C1c2ccccc2N=C(c2cc3c(cc2Cl)Sc2nccn2S3(=O)=O)OS(=O)(=O)N1c1ccccc1 | > 100 µM | > 100 µM | 42.6 µM | 60.7 µM | 76.2 µM | 32 µM | 47.5 µM | 32.8 µM | > 100 µM | 66.2 µM | 44.5 µM | 46.1 µM | > 100 µM | 50.1 µM | 46.4 µM | 51.4 µM | 
5 | CCOC(=O)/C=C/n1c2ccccc2c(=O)c2cc(OC)ccc21 | > 100 µM | > 100 µM | > 100 µM | > 100 µM | > 100 µM | 41.3 µM | > 100 µM | > 100 µM | > 100 µM | > 100 µM | > 100 µM | > 100 µM | > 100 µM | > 100 µM |  |  | 
6 | O=C1NC(=O)C(C(=O)C(=O)Nc2cc(Cl)ccc2Cl)C(=O)N1 | > 100 µM | > 100 µM | > 100 µM | > 100 µM | > 100 µM |  | > 100 µM | > 100 µM |  | > 100 µM | > 100 µM | > 100 µM | > 100 µM | > 100 µM | > 100 µM |  | 
7 | Cc1ccc2nc(N)[nH]c(=O)c2c1Sc1ccncc1 | > 100 µM | > 100 µM | > 100 µM | > 100 µM | > 100 µM | > 100 µM | > 100 µM | > 100 µM |  | > 100 µM | > 100 µM | > 100 µM | > 100 µM | > 31.6 µM | > 100 µM |  | 
8 | N#C/C(=C\c1ccc(O)c(O)c1)c1c(C#N)c(N)nn1-c1ccccc1 | 9.63 µM | 26.9 µM | 61.1 µM | 32.7 µM | 40.8 µM | 44 µM | 31.9 µM |  |  | 25.3 µM | 29.2 µM | > 100 µM | 20.6 µM | > 100 µM |  |  | 
9 | Cc1ccc(Nc2c3c(c(C#N)c4nc5ccccc5n24)CCCC3)cc1 |  | > 100 µM | 50.6 µM | 25.5 µM |  | > 100 µM | 74.4 µM | 40.6 µM | 62 µM | > 100 µM | > 100 µM |  | > 100 µM | 71.2 µM |  | 45.8 µM | > 100 µM
10 | c1ccc2c(c1)nnn2CNc1ccc(N2CCCCC2)cc1 | > 100 µM | > 100 µM | > 100 µM | > 100 µM | > 100 µM | > 100 µM | > 100 µM | > 100 µM | > 100 µM | > 100 µM | > 100 µM | > 100 µM | > 100 µM | > 100 µM | > 100 µM |  | 
11 | O=C(Nc1ccccc1)c1cc2ccccc2c(N=Nc2cccc([N+](=O)[O-])c2)c1O | > 100 µM | > 100 µM | > 100 µM |  | > 100 µM |  | > 100 µM | > 100 µM | > 100 µM | > 100 µM | > 100 µM | > 100 µM | > 100 µM | > 100 µM |  | > 100 µM | > 100 µM
12 | COc1ccc(CN(CCN(C)C)c2ccccn2)cc1 (tested in a mixture with another compound) | > 100 µM | > 100 µM |  |  | > 100 µM |  | > 100 µM | > 100 µM |  | > 100 µM | > 100 µM | > 100 µM | > 100 µM |  |  |  | 
13 | Nc1cn(C2OC(CC(c3ccccc3)(c3ccccc3)c3ccccc3)C(O)C2O)c(=O)[nH]c1=O (stereo unspecified) | 95.5 µM | > 100 µM | 30.3 µM | 36.9 µM | 63.1 µM | 35.2 µM | 48.6 µM | 63.4 µM | > 100 µM | 65.8 µM | 89.6 µM | > 100 µM | 32.1 µM | 28.5 µM | 42 µM |  | 
14 | NC(CCSCC(F)(F)F)C(=O)O (stereo unspecified) | > 100 µM | > 100 µM | > 100 µM | > 100 µM | > 100 µM | > 100 µM | > 100 µM | > 100 µM | > 100 µM | > 100 µM | > 100 µM | > 100 µM | > 100 µM | > 100 µM |  |  | 
15 | Clc1ccc(Nc2ncco2)cc1Cl | > 10 µM | > 10 µM | > 10 µM |  | > 10 µM | > 10 µM | > 10 µM | > 10 µM | > 10 µM | > 10 µM | > 10 µM | > 10 µM | > 10 µM | > 10 µM |  | > 10 µM | > 10 µM
16 | Oc1ccc(-c2c3ccccc3c(-c3ccc(O)cc3)c3ccccc23)cc1 | > 100 µM | > 100 µM | > 100 µM | > 100 µM | > 100 µM | > 100 µM | > 100 µM | > 100 µM | > 100 µM | > 100 µM | > 100 µM | > 100 µM | > 100 µM | > 100 µM | > 100 µM |  | 
